Laboratory results: patent EP0617893B1, “Molluscicides” (SHELL INTE[…] […] B.V., priority 1993, dated 1994)
Where two headings read alike, the source gives them in different places.

How the values were obtained:
Deroceras reticulatum [1] = assay: Oral toxicity bait test (pellets in petri-dish), percentage control; assay type: in vivo; conditions: 72 h; for mortality at 4 % strength: read-out: % control; for mortality at 2 % strength: 2 % active material in bait
Method: The molluscicidal activity of compounds used in the method of the invention was tested using, as a test mollusc, specimens of the adult grey field slug Deroceras reticulatum.
The oral toxicity of the compounds was assessed by presenting slugs with individually prepared experimental baits containing either 4% or 2% active material. These were compared with commercial baits containing 4% methiocarb (Draza) […] 6% metaldehyde (Slugit).
2 test pellets were placed onto a 5 cm filter-paper in the centre of a 9 cm plastic petri-dish. Two adults specimens of the slug Deroceras reticulatum were introduced into each dish and the pellets moistened with a few drops of water to make them attractive to eat. A minimum of the two replicates was used for each compound. Blank baits moistened with an equivalent volume of water were used as controls.
The dishes were then stored in a large glass tank maintained at 12 to 16°C and >95% relative humidity. Assessments of the number of slugs affected were made at intervals up to 3 days after treatment. Slugs were considered to be affected or controlled by the bait if they were incapable of normal body movements and could not right themselves within 2 minutes.
The molluscicidal activity of two compounds specified in European Patent Specification No. 437 784 A1, was tested against slugs, Deroceras reticulatum, using the test method given in Example 1 and bait containing 4% active material in each case. • Comparative A is the compound of Example 2 of EP-A-437 784 • Comparative B is the compound of Example 3 of EP-A-437 784.

[2] = statement of DE-A-4111389; cited from earlier work
D. reticulatum = assay: Contact test: glass residue test; assay type: in vivo; conditions: Deroceras reticulatum, read-out: % affected D. reticulatum
Method: The contact action of Compounds Nos. 1, 3 and 4 was assessed in this Example, using a glass residue test.
The residual toxicity of compounds on glass was investigated by pipetting aliquots of an acetone/Triton X-100 test solution over the base of a 7 cm diameter glass petri-dish to achieve a concentration of 600 ppm. Four adult slugs (D. reticulatum) were introduced into each dish and slug mortality recorded over a 5 day period. Moistened sugar bran mix was provided as food 24 hours after exposure.

[3] = tested on: snails of the genus Cepaea; assay: Bait test against snails; assay type: in vivo; conditions: bait containing 2%, 4% and 6% active ingredient
Method: (§1) The action of Compound No. 1 was assessed against a wide range of slug species, and against snails of the genus Cepaea, with bait containing 2%, 4% and 6% active ingredient. The action of a 4% Draza (trade name for a sluggicide sold by Bayer AG and containing the carbamate molluscicide methiocarb) bait was also assessed.

slugs = assay: Systemic activity: lettuce root dip, cut leaves fed to slugs; assay type: in vivo; conditions: root dip 400 ppm
Method: The action via systemic application of the Compound Nos. 1, 3 and 4 was assessed in this Example.
Test solutions of the compounds were prepared by dissolving technical samples in 1 ml of acetone and making up to 50 ml with tap water. The roots of young 6 cm high lettuce plants were then washed clean with water and immersed in the test solution for a minimum of two days. For each bioassay individual leaves were cut from a lettuce plant and placed on a filter paper in a 9cm diameter petri-dish. 1 ml of water was pipetted onto each filter paper in order to keep the leaves reasonably moist during the assay. Two medium-sized slugs were introduced into each dish and the amount of leaf eaten and % control of slugs recorded over a two day period. The amount of compound applied as root dips was in the range of from 400 to 1000 ppm over a number of tests.

Deroceras reticulatum [4] = assay: Bait test against a range of slug species; assay type: in vivo
Method: as §1
(§2) The slug species utilised in the test were Milax budapestensis , a large slug which is a major pest of potatoes Deroceras reticulatum , grey field slug - a major field crop pest Arion hortensis , garden slug.

Arion hortensis = assay: Bait test against a range of slug species; assay type: in vivo
Method: as §1, §2

Milax budapestensis = assay: Bait test against a range of slug species; assay type: in vivo
Method: as §1, §2

[5] = 4 % active material in bait, assessments up to 3 days after treatment
[6] = assessments up to 3 days after treatment
[7] = bait containing 2%, 4% and 6% active ingredient

O=[N+]([O-])N=C1NCCN1Cc1ccc(Cl)nc1 [Compound No. 13, Imidacloprid]
mortality at 4 % strength (Deroceras reticulatum [1]; [5]): 30% | molluscicidal effectiveness [2]: only a relatively poorly developed molluscicidal effectiveness

O=[N+]([O-])C=C1NCCN1Cc1cccc2ccccc12 [compound 20]
mortality at 2 % strength (Deroceras reticulatum [1]; [6]): 25%

O=[N+]([O-])C=C1NCCN1Cc1cc(Br)no1 [compound 5]
mortality at 2 % strength (Deroceras reticulatum [1]; [6]): 50%

C=C(C)CN1CCCNC1=C[N+](=O)[O-] [compound 23]
mortality at 2 % strength (Deroceras reticulatum [1]; [6]): 25%

O=[N+]([O-])N=C1NCCN1Cc1cc(Cl)no1 [compound 2]
mortality at 2 % strength (Deroceras reticulatum [1]; [6]): 50%

Cc1cc(CN2CCSC2=C[N+](=O)[O-])on1 [compound 7]
mortality at 2 % strength (Deroceras reticulatum [1]; [6]): 100%

O=[N+]([O-])C=C1NCCN1Cc1cc(C(F)(F)F)no1 [compound 4]
mortality at 2 % strength (Deroceras reticulatum [1]; [6]): 100% | mortality at 600 ppm (D. reticulatum; 24 hours): 25% | mortality at 600 ppm (D. reticulatum; 48 hours): 0% | mortality at 600 ppm (D. reticulatum; 120 hours): 25%

O=[N+]([O-])C(CSc1ccc(Cl)cc1)=C1NCCN1Cc1cc(Br)no1 [compound 10]
mortality at 2 % strength (Deroceras reticulatum [1]; [6]): 25%

O=[N+]([O-])C=C1SCCN1Cc1cnc(Cl)c(Cl)c1 [compound 16]
mortality at 2 % strength (Deroceras reticulatum [1]; [6]): 50%

O=[N+]([O-])C(CSCc1ccccc1)=C1NCCN1c1ccc(Cl)nc1 [compound 17]
mortality at 2 % strength (Deroceras reticulatum [1]; [6]): 25%

CNC(=O)Oc1cc(C)c(SC)c(C)c1 [methiocarb, reference compound]
mortality at 4 % strength (Deroceras reticulatum [1]): 100%

Cc1ccc(CN2CCNC2=C[N+](=O)[O-])cc1[N+](=O)[O-] [compound 21]
mortality at 2 % strength (Deroceras reticulatum [1]; [6]): 25%

Cc1cc(CN2CCCNC2=C[N+](=O)[O-])on1 [compound 24]
mortality at 2 % strength (Deroceras reticulatum [1]; [6]): 25%

O=[N+]([O-])N=C1NCCN1Cc1cc(Br)no1 [compound 6]
mortality at 2 % strength (Deroceras reticulatum [1]; [6]): 25%

O=[N+]([O-])N=C1NCCN1Cc1cnc(Cl)c(Cl)c1 [compound 15]
mortality at 2 % strength (Deroceras reticulatum [1]; [6]): 25%

O=[N+]([O-])C(=C1NCCN1Cc1cc(Cl)no1)[N+](=O)[O-] [compound 9]
mortality at 2 % strength (Deroceras reticulatum [1]; [6]): 50%

O=[N+]([O-])C=C1NCCN1Cc1cnc(Cl)c(Cl)c1 [compound 14]
mortality at 4 % strength (Deroceras reticulatum [1]; [5]): 20%

O=[N+]([O-])C=C1NCCN1Cc1ccc(F)c(F)c1F [compound 18]
mortality at 2 % strength (Deroceras reticulatum [1]; [6]): 25%

O=[N+]([O-])C=C1NCCN1Cc1ccc(C(F)(F)F)cc1 [compound 22]
mortality at 2 % strength (Deroceras reticulatum [1]; [6]): 50%

O=[N+]([O-])C=C1NCCN1Cc1cc(Cl)no1 [Compound No. 1]
control of snails [3]: controlled | systemic activity (slugs): Activity was observed | mortality at 4 % strength (Deroceras reticulatum [1]; [5]): 100% | effectiveness compared with 4% Draza bait (Deroceras reticulatum [4]; 4% bait): more effective than the 4% Draza bait | control of slugs (Deroceras reticulatum [4]; [7]): controlled | effectiveness compared with 4% Draza bait (Arion hortensis; 4% bait): more effective than the 4% Draza bait | control of slugs (Arion hortensis; [7]): controlled | effectiveness compared with 4% Draza bait (Milax budapestensis; 4% bait): more effective than the 4% Draza bait | control of slugs (Milax budapestensis; [7]): controlled | mortality at 600 ppm (D. reticulatum; 24 hours): 100% | mortality at 600 ppm (D. reticulatum; 48 hours): 75% | mortality at 600 ppm (D. reticulatum; 120 hours): 100%

O=[N+]([O-])C=C1SCCN1Cc1cc(Cl)no1 [compound 8]
mortality at 2 % strength (Deroceras reticulatum [1]; [6]): 25%

Cc1cc(CN2CCNC2=N[N+](=O)[O-])on1 [compound 11]
mortality at 2 % strength (Deroceras reticulatum [1]; [6]): 100%

O=[N+]([O-])C=C1NCCN1Cc1ccc(Cl)nc1 [compound 12]
mortality at 4 % strength (Deroceras reticulatum [1]; [5]): 20%

Cc1cc(CN2CCNC2=C[N+](=O)[O-])on1 [compound 3]
systemic activity (slugs): Activity was observed | mortality at 2 % strength (Deroceras reticulatum [1]; [6]): 100% | mortality at 600 ppm (D. reticulatum; 24 hours): 75% | mortality at 600 ppm (D. reticulatum; 48 hours): 100% | mortality at 600 ppm (D. reticulatum; 120 hours): 100%
